The numbers were not newly measured in article PMC5960647 (Experimental & Molecular Medicine, 2018), which cites them from elsewhere.

Where no end group is shown, it is not given here.

Data set [1] concerns CCKBR. The following applies: cited from earlier work.
Data set [2] relates to CCKBR. The following applies: dorsal root ganglion neurons, CCKBR in the same neuron; cited from earlier work.

As for “cholecystokinin octapeptide (DYMGWMDF; ends and bridges not checked; UniProt P06307 96-103, looked up) [CCK-8]”, the “effect on electroacupuncture analgesia” value in the data set on CCKBR [1] (caudate nucleus, through CCKBR) is recorded as “antagonism to electroacupuncture analgesia”. Besides, the “effect on opioid analgesia” value in the data set on CCKBR [1] (shown with L-365,260) is given as “inhibited opioid analgesia through CCKBR”. Moreover, the “effect on MOR-mediated inhibition of voltage-gated calcium current” value with CCKBR [2] is reported as “antagonized”.

With `Cc1cccc(NC(=O)N[C@@H]2N=C(c3ccccc3)c3ccccc3N(C)C2=O)c1` [L-365,260], in the data set with CCKBR [1], the “effect on opioid-induced analgesia” value is on record as “potentiated opioid-induced analgesia” and the “effect on pain threshold of administration per se” value is “did not affect pain threshold”.
